Source: patent publication US20060281700A1, “SYNERGISTIC MODULATION OF FLT3 KINASE USING AMINOPYRIMIDINES KINASE MODULATORS” (priority 2005, published 2006)

Tests used:
[1] = Tolerability in MV4-11 tumor-bearing nude mice (body weight, overt clinical signs); conditions: either agent alone or in combination
Protocol: Female athymic nude mice weighing no less than 20-21 grams were inoculated subcutaneously in the left inguinal region of the thigh with 5×10^6 tumor cells in a delivery volume of 0.2 mL. For regression studies, the tumors were allowed to grow to a pre-determined size prior to initiation of dosing. […] Mice were dosed orally by gavage with vehicle (control group) or compound at various doses twice-daily (b.i.d.) during the week and once-daily (q.d.) on weekends. […] If tumors in the control mice reached ˜10% of body weight (˜2.0 grams), the study was to be terminated. […] During the study, tumor growth was measured three times-a-week (M, W, F) using electronic Vernier calipers. Tumor volume (mm^3) was calculated using the formula […], where L=length (mm) and W=width (shortest distance in mm) of the tumor. Body weight was measured three times-a-week and a loss of body weight >10% was used as an indication of lack of compound tolerability. […]
Female athymic nude mice weighing no less than 20-21 grams were inoculated subcutaneously in the left inguinal region of the thigh with 5×10^6 tumor cells in a delivery volume of 0.2 mL. For regression studies, the tumors were allowed to grow to a pre-determined size prior to initiation of dosing. […] During the study, tumor growth was measured three times-a-week (M, W, F) using electronic Vernier calipers. […]

[2] = test system: Baf3-FLT3 cells stimulated with 100 ng/ml FLT ligand; test: Cell proliferation assay, single agents and FTI/FLT3 inhibitor combinations, Baf3-FLT3; format: cell-based, murine
Protocol: (§1) The cell lines that were tested included those that are dependent on FLT3ITD mutant activity for growth (MV4-11 and Baf3-FLT3ITD), FLT3 wt activity for growth (Baf3FLT3) and those that grow independent of FLT3 activity (THP-1). […] Baf3-FLT3 and Baf3-FLT3ITD cell lines were obtained from Dr. Michael Henrich and the Oregon Health Sciences University. The Baf3 FLT3 cell lines were created by stable transfection of parental Baf3 cells (a murine B cell lymphoma line dependent on the cytokine IL-3 for growth) with either wild-type FLT3 or FLT3 containing the ITD insertion in the juxatamembrane domain of the receptor resulting in its constitutive activation. Cells were selected for their ability to grow in the absence of IL-3 and in either the presence of FLT3 ligand (Baf3-FLT3) or independent of any growth factor (Baf3-ITD). […]
(§2) Dose responses for the individual compounds alone were determined for each cell line using a standard 72-hour cell proliferation assay (see FIGS. 6.1-6.8). […]
(§3) To statistically evaluate the synergy of a FLT3 inhibitor and an FTI in FLT3 dependent cell lines, dosing combinations were evaluated by the method of Chou and Talalay. See Chou T C, Talalay P. (1984) “Quantitative analysis of dose-effect relationships: the combined effects of multiple drugs or enzyme inhibitors.” Adv Enzyme Regul. […] Using this method, multiple FTI and FLT3 combinations were evaluated. […]

Baf3-ITD cells = test: Cell proliferation assay, single agents and FTI/FLT3 inhibitor combinations, Baf3-ITD; format: cell-based, murine
Protocol: as §1, §2, §3

SMILES: Cn1cncc1C(N)(c1ccc(Cl)cc1)c1ccc2c(c1)c(-c1cccc(Cl)c1)cc(=O)n2C (single isomer, unassigned; (+)) [Tipifarnib, (+)-6-[amino(4-chlorophenyl)(1-methyl-1H-imidazol-5-yl)methyl]-4-(3-chlorophenyl)-1-methyl-2(1H)-quinolinone]
- overt toxicity ([1]; 9-day treatment): No overt toxicity
- overt toxicity ([1]; 16-day treatment): No overt toxicity
- increase in potency of Tipifarnib with a single sub-IC50 dose of FLT3 inhibitor Compound A ([2]; Baf3-FLT3, Compound A 100 nM): more than 3 fold
- IC50 ([2]; Mus musculus, Baf3-FLT3 proliferation, FTI alone or in the combination named): 1.85 nM
- increase in potency of Tipifarnib with a single sub-IC50 dose of FLT3 inhibitor Compound A (Baf3-ITD cells; Baf3-ITD, Compound A 50 nM): more than 3 fold
- IC50 (Baf3-ITD cells; Mus musculus, Baf3-ITD proliferation, FTI alone or in the combination named): 548 nM
